Test system: MV-4-11 cells
Experiment: Gene expression microarray analysis (Affymetrix PrimeView) and GSEA
Format: cell-based, human
Design: RFU PODN (11730768_x_at) / Fold change /veh PODN (11730768_x_at) / RFU LINC00158 (11744669_a_at) / Fold change /veh LINC00158 (11744669_a_at) / RFU DUSP10 (11751237_a_at) / Fold change /veh DUSP10 (11751237_a_at) / RFU ID3 (11757404_x_at) / Fold change /veh ID3 (11757404_x_at) / RFU PLEKHG5 (11737974_s_at) / Fold change /veh PLEKHG5 (11737974_s_at) / RFU LRRC4B (11730491_at) / Fold change /veh LRRC4B (11730491_at) / RFU GIMAP4 (11747438_a_at) / Fold change /veh GIMAP4 (11747438_a_at) / RFU KRT8 (11758183_x_at) / Fold change /veh KRT8 (11758183_x_at) / RFU CNN1 (11734310_a_at) / Fold change /veh CNN1 (11734310_a_at) / RFU VPS37D (11726825_at) / Fold change /veh VPS37D (11726825_at) / RFU C10orf10 (11716522_x_at) / Fold change /veh C10orf10 (11716522_x_at) / RFU KIR2DL2 /// KIR2DL4 /// KIR2DL5A /// KIR2DL5B /// KIR2DS1 /// KIR2DS2 /// KIR2DS3 /// KIR2DS4 /// KIR3DL3 /// KIR3DL3 /// KIR3DS1 (11738374_at) / Fold change /veh KIR2DL2 /// KIR2DL4 /// KIR2DL5A /// KIR2DL5B /// KIR2DS1 /// KIR2DS2 /// KIR2DS3 /// KIR2DS4 /// KIR3DL3 /// KIR3DL3 /// KIR3DS1 (11738374_at) / RFU C1QL1 (11718748_at) / Fold change /veh C1QL1 (11718748_at) / RFU TMPRSS4 (11747572_a_at) / Fold change /veh TMPRSS4 (11747572_a_at) / RFU HAMP (11756126_x_at) / Fold change /veh HAMP (11756126_x_at) / RFU RNFT2 (11725882_a_at) / Fold change /veh RNFT2 (11725882_a_at) / RFU NR4A2 (11747474_a_at) / Fold change /veh NR4A2 (11747474_a_at) / RFU ABCC12 (11746883_a_at) / Fold change /veh ABCC12 (11746883_a_at) / RFU TMEM136 (11760407_x_at) / Fold change /veh TMEM136 (11760407_x_at) / RFU CLDN22 /// WWC2 (11732394_at) / Fold change /veh CLDN22 /// WWC2 (11732394_at) / RFU HLA-DPB1 (11760878_x_at) / Fold change /veh HLA-DPB1 (11760878_x_at) / RFU SPINT1 (11716480_a_at) / Fold change /veh SPINT1 (11716480_a_at) / RFU GAP43 (11754022_s_at) / Fold change /veh GAP43 (11754022_s_at) / RFU A4GNT (11735810_at) / Fold change /veh A4GNT (11735810_at) / RFU PRB3 (11715151_x_at) / Fold change /veh PRB3 (11715151_x_at) / RFU TUBB4B (11761932_at) / Fold change /veh TUBB4B (11761932_at) / RFU CAPN14 (11732068_a_at) / Fold change /veh CAPN14 (11732068_a_at) / RFU TMCC2 (11721928_a_at) / Fold change /veh TMCC2 (11721928_a_at) / RFU IRGQ (11745062_a_at) / Fold change /veh IRGQ (11745062_a_at) / RFU FAM174B (11720279_a_at) / Fold change /veh FAM174B (11720279_a_at) / RFU TMPRSS4 (11748680_a_at) / Fold change /veh TMPRSS4 (11748680_a_at) / RFU FAM212B (11763350_a_at) / Fold change /veh FAM212B (11763350_a_at) / RFU PLEKHG5 (11743358_a_at) / Fold change /veh PLEKHG5 (11743358_a_at) / RFU ZSCAN30 (11745921_a_at) / Fold change /veh ZSCAN30 (11745921_a_at) / RFU CMKLR1 (11741424_a_at) / Fold change /veh CMKLR1 (11741424_a_at) / RFU LOC101060620 /// MAPK8IP1 (11723275_at) / Fold change /veh LOC101060620 /// MAPK8IP1 (11723275_at) / RFU SPTSSB (11747773_x_at) / Fold change /veh SPTSSB (11747773_x_at) / RFU PRSS12 (11739890_at) / Fold change /veh PRSS12 (11739890_at) / RFU BIN1 (11741810_x_at) / Fold change /veh BIN1 (11741810_x_at) / RFU WNT11 (11732464_a_at) / Fold change /veh WNT11 (11732464_a_at) / RFU C10orf10 (11716521_a_at) / Fold change /veh C10orf10 (11716521_a_at) / RFU C5orf56 (11738089_at) / Fold change /veh C5orf56 (11738089_at) / RFU CYB561 (11721691_x_at) / Fold change /veh CYB561 (11721691_x_at) / RFU ANKRD19P (11752326_a_at) / Fold change /veh ANKRD19P (11752326_a_at) / RFU OR2T12 /// OR2T33 /// OR2T8 (11738714_s_at) / Fold change /veh OR2T12 /// OR2T33 /// OR2T8 (11738714_s_at) / RFU VCAN (11748164_a_at) / Fold change /veh VCAN (11748164_a_at) / RFU JSRP1 (11732532_at) / Fold change /veh JSRP1 (11732532_at) / RFU KRTAP10-11 (11738290_x_at) / Fold change /veh KRTAP10-11 (11738290_x_at) / RFU MYO3A (11730013_a_at) / Fold change /veh MYO3A (11730013_a_at) / RFU EBF3 (11725865_a_at) / Fold change /veh EBF3 (11725865_a_at) / RFU CAMK2N1 (11719241_x_at) / Fold change /veh CAMK2N1 (11719241_x_at) / RFU C5orf56 (11738088_a_at) / Fold change /veh C5orf56 (11738088_a_at) / RFU OLFML3 (11715873_a_at) / Fold change /veh OLFML3 (11715873_a_at) / RFU LOC100653217 /// NTM (11731650_a_at) / Fold change /veh LOC100653217 /// NTM (11731650_a_at) / RFU MAPK11 (11762145_a_at) / Fold change /veh MAPK11 (11762145_a_at) / RFU FIZ1 (11724087_x_at) / Fold change /veh FIZ1 (11724087_x_at) / RFU OASL (11726364_x_at) / Fold change /veh OASL (11726364_x_at) / RFU SOX15 (11748057_x_at) / Fold change /veh SOX15 (11748057_x_at) / RFU CD79A (11719716_a_at) / Fold change /veh CD79A (11719716_a_at) / RFU HIST1H1D (11736915_at) / Fold change /veh HIST1H1D (11736915_at) / RFU CASKIN2 (11723855_a_at) / Fold change /veh CASKIN2 (11723855_a_at) / RFU LOC730098 (11760151_x_at) / Fold change /veh LOC730098 (11760151_x_at) / RFU OR4N2 (11742367_at) / Fold change /veh OR4N2 (11742367_at) / RFU PRRT2 (11749266_a_at) / Fold change /veh PRRT2 (11749266_a_at) / RFU SNX32 (11753110_a_at) / Fold change /veh SNX32 (11753110_a_at) / RFU CDHR5 (11726645_a_at) / Fold change /veh CDHR5 (11726645_a_at) / RFU RCAN1 (11760418_a_at) / Fold change /veh RCAN1 (11760418_a_at) / RFU FAM167A (11723789_a_at) / Fold change /veh FAM167A (11723789_a_at) / RFU FAM26E (11764081_at) / Fold change /veh FAM26E (11764081_at) / RFU ISYNA1 (11749810_s_at) / Fold change /veh ISYNA1 (11749810_s_at) / RFU ACY1 (11761880_at) / Fold change /veh ACY1 (11761880_at) / RFU 11764098_at / Fold change /veh 11764098_at / RFU SAMD14 (11745864_x_at) / Fold change /veh SAMD14 (11745864_x_at) / RFU NPB (11741838_a_at) / Fold change /veh NPB (11741838_a_at) / RFU TMPRSS6 (11731388_a_at) / Fold change /veh TMPRSS6 (11731388_a_at) / RFU KRTAP10-2 (11738614_at) / Fold change /veh KRTAP10-2 (11738614_at) / RFU ARHGAP8 /// PRR5-ARHGAP8 (11727945_x_at) / Fold change /veh ARHGAP8 /// PRR5-ARHGAP8 (11727945_x_at) / RFU KRTAP5-7 /// NADSYN1 (11734609_at) / Fold change /veh KRTAP5-7 /// NADSYN1 (11734609_at) / RFU RASL12 (11751679_a_at) / Fold change /veh RASL12 (11751679_a_at) / RFU CDKN2B (11736163_a_at) / Fold change /veh CDKN2B (11736163_a_at) / RFU PRF1 (11729649_at) / Fold change /veh PRF1 (11729649_at) / RFU, ZNF638 /// ZNF638-IT1 / Fold change vs veh, ZNF638 /// ZNF638-IT1 / RFU, PANK3 / Fold change vs veh, PANK3 / RFU, SH3YL1 / Fold change vs veh, SH3YL1 / RFU, ZEB2 / Fold change vs veh, ZEB2 / RFU, NRIP1 / Fold change vs veh, NRIP1 / RFU, PTTG1IP / Fold change vs veh, PTTG1IP / RFU, CAPN2 / Fold change vs veh, CAPN2 / RFU, MED14 / Fold change vs veh, MED14 / RFU, SNORA58 / Fold change vs veh, SNORA58 / RFU, C1orf63 / Fold change vs veh, C1orf63 / RFU, LRRFIP1 / Fold change vs veh, LRRFIP1 / RFU, NDUFAF7 / Fold change vs veh, NDUFAF7 / RFU, SLC12A2 / Fold change vs veh, SLC12A2 / RFU, IBTK / Fold change vs veh, IBTK / RFU, ESF1 / Fold change vs veh, ESF1 / Fold change vs veh, TMEM50B / RFU, TAOK1 / Fold change vs veh, TAOK1 / RFU, ACBD3 / Fold change vs veh, ACBD3 / RFU, TMA16 / Fold change vs veh, TMA16 / RFU, RWDD3 / Fold change vs veh, RWDD3 / RFU, BCAT1 / Fold change vs veh, BCAT1 / RFU, EDEM3 / Fold change vs veh, EDEM3 / RFU, TMEM33 / Fold change vs veh, TMEM33 / RFU, WDR75 / Fold change vs veh, WDR75 / RFU, AHCTF1 / Fold change vs veh, AHCTF1 / RFU, TFRC / Fold change vs veh, TFRC / RFU, ZDHHC17 / Fold change vs veh, ZDHHC17 / RFU, NOM1 / Fold change vs veh, NOM1 / RFU, ARL8B / Fold change vs veh, ARL8B / RFU, ZBTB11 / Fold change vs veh, ZBTB11 / RFU, TAMM41 / Fold change vs veh, TAMM41 / RFU, KIAA1704 /// LOC100996395 / Fold change vs veh, KIAA1704 /// LOC100996395 / RFU, ING1 / Fold change vs veh, ING1 / RFU, TRMT61B / Fold change vs veh, TRMT61B / RFU, FUBP3 / Fold change vs veh, FUBP3 / RFU, TP53 / Fold change vs veh, TP53 / RFU, TNKS2 / Fold change vs veh, TNKS2 / RFU, ZFP14 / Fold change vs veh, ZFP14 / RFU, ACTR2 / Fold change vs veh, ACTR2 / RFU, PPP3R1 / Fold change vs veh, PPP3R1 / RFU, PIK3R1 / Fold change vs veh, PIK3R1 / RFU, HNRNPA1 / Fold change vs veh, HNRNPA1 / RFU, RNF170 / Fold change vs veh, RNF170 / RFU, ZNF28 / Fold change vs veh, ZNF28 / RFU, RNGTT / Fold change vs veh, RNGTT / RFU, OGT / Fold change vs veh, OGT / RFU, BRD1 / Fold change vs veh, BRD1 / RFU, MARS / Fold change vs veh, MARS / RFU, ZNF655 / Fold change vs veh, ZNF655 / RFU, FAHD1 / Fold change vs veh, FAHD1 / RFU, BDP1 / Fold change vs veh, BDP1 / RFU, LRRCC1 / Fold change vs veh, LRRCC1 / RFU, ARID1A / Fold change vs veh, ARID1A / RFU, ZNF146 / Fold change vs veh, ZNF146 / RFU, ZNF330 / Fold change vs veh, ZNF330 / RFU, GPN3 / Fold change vs veh, GPN3 / RFU, C9orf123 / Fold change vs veh, C9orf123 / RFU, N4BP2L2 / Fold change vs veh, N4BP2L2 / RFU, ARFIP1 / Fold change vs veh, ARFIP1 / RFU, FAM179B / Fold change vs veh, FAM179B / RFU, BCL10 / Fold change vs veh, BCL10 / RFU, UHRF1BP1L / Fold change vs veh, UHRF1BP1L / RFU, BET1 / Fold change vs veh, BET1 / RFU, CNOT2 / Fold change vs veh, CNOT2 / RFU, ZNF268 / Fold change vs veh, ZNF268 / Fold change vs veh, ZNF507 / RFU, DGCR2 / Fold change vs veh, DGCR2 / RFU, WDSUB1 / Fold change vs veh, WDSUB1 / Fold change vs veh, HSP90B1 /// MIR3652 / RFU, ADSS / Fold change vs veh, ADSS / RFU, GK / Fold change vs veh, GK / RFU, ZNF148 / Fold change vs veh, ZNF148 / RFU, TAF9 / Fold change vs veh, TAF9 / RFU, SLC1A5 / Fold change vs veh, SLC1A5 / RFU, SLMO2 / Fold change vs veh, SLMO2 / RFU, ABCC4 / Fold change vs veh, ABCC4 / RFU, LOC101060439 /// RAP1B / Fold change vs veh, LOC101060439 /// RAP1B / RFU, RFX7 / Fold change vs veh, RFX7 / RFU, GTPBP10 / Fold change vs veh, GTPBP10 / RFU, CNEP1R1 / Fold change vs veh, CNEP1R1 / RFU, BIVM-ERCC5 /// ERCC5 / Fold change vs veh, BIVM-ERCC5 /// ERCC5 / RFU, ILF3 / Fold change vs veh, ILF3 / RFU 11762660_at / Fold change /veh 11762660_at / RFU VCAN (11757783_s_at) / Fold change /veh VCAN (11757783_s_at) / RFU DDX43 (11728927_at) / Fold change /veh DDX43 (11728927_at) / RFU KRT8 (11758188_x_at) / Fold change /veh KRT8 (11758188_x_at) / RFU NKD1 (11759106_at) / Fold change /veh NKD1 (11759106_at) / RFU SRD5A1 (11742802_a_at) / Fold change /veh SRD5A1 (11742802_a_at) / RFU TPSAB1 /// TPSB2 (11721975_s_at) / Fold change /veh TPSAB1 /// TPSB2 (11721975_s_at) / RFU GSTM3 (11746129_a_at) / Fold change /veh GSTM3 (11746129_a_at) / RFU IL23R (11737362_x_at) / Fold change /veh IL23R (11737362_x_at) / RFU TMEM51 (11727254_a_at) / Fold change /veh TMEM51 (11727254_a_at) / RFU PIWIL2 (11732686_x_at) / Fold change /veh PIWIL2 (11732686_x_at) / RFU ORM1 (11744905_x_at) / Fold change /veh ORM1 (11744905_x_at) / RFU CCDC152 (11743942_at) / Fold change /veh CCDC152 (11743942_at) / RFU ECM1 (11717891_a_at) / Fold change /veh ECM1 (11717891_a_at) / RFU IL23R (11748794_a_at) / Fold change /veh IL23R (11748794_a_at) / RFU TNFAIP8L3 (11732012_x_at) / Fold change /veh TNFAIP8L3 (11732012_x_at) / RFU MBOAT4 (11741988_at) / Fold change /veh MBOAT4 (11741988_at) / RFU 11764193_at / Fold change /veh 11764193_at / RFU TMEM53 (11763286_at) / Fold change /veh TMEM53 (11763286_at) / RFU MAGEB2 (11727129_at) / Fold change /veh MAGEB2 (11727129_at) / RFU TMEM200A (11744735_a_at) / Fold change /veh TMEM200A (11744735_a_at) / RFU CCDC152 (11751479_a_at) / Fold change /veh CCDC152 (11751479_a_at) / RFU FAM211A (11726209_a_at) / Fold change /veh FAM211A (11726209_a_at) / RFU RGS16 (11746705_a_at) / Fold change /veh RGS16 (11746705_a_at) / RFU VCAN (11755009_s_at) / Fold change /veh VCAN (11755009_s_at) / RFU RHOB (11743442_s_at) / Fold change /veh RHOB (11743442_s_at) / RFU RGS16 (11720943_a_at) / Fold change /veh RGS16 (11720943_a_at) / RFU RGS16 (11720944_at) / Fold change /veh RGS16 (11720944_at) / RFU, VPS4B / Fold change vs veh, VPS4B / RFU, CREB1 / Fold change vs veh, CREB1 / RFU, DNAJC13 / Fold change vs veh, DNAJC13 / RFU, GNAQ / Fold change vs veh, GNAQ / RFU, CDK5R1 / Fold change vs veh, CDK5R1 / RFU, ZRANB3 / Fold change vs veh, ZRANB3 / RFU, CUL4A / Fold change vs veh, CUL4A / RFU, CCNY / Fold change vs veh, CCNY / RFU, UFL1 / Fold change vs veh, UFL1 / RFU, COG3 / Fold change vs veh, COG3 / RFU, DIAPH2 / Fold change vs veh, DIAPH2 / RFU, SKA2 / Fold change vs veh, SKA2 / RFU, AFF3 / Fold change vs veh, AFF3 / RFU, LMF1 / Fold change vs veh, LMF1 / RFU, IPO11 / Fold change vs veh, IPO11 / RFU, DFFB / Fold change vs veh, DFFB / RFU, FOXP1 / Fold change vs veh, FOXP1 / RFU, CARD8 / Fold change vs veh, CARD8 / RFU, STRN3 / Fold change vs veh, STRN3 / RFU, ADK / Fold change vs veh, ADK / RFU, RASSF2 / Fold change vs veh, RASSF2 / RFU, WIPF1 / Fold change vs veh, WIPF1 / RFU, LARP1B / Fold change vs veh, LARP1B / RFU, RASA1 / Fold change vs veh, RASA1 / RFU, RB1 / Fold change vs veh, RB1 / RFU, PPFIA1 / Fold change vs veh, PPFIA1 / RFU, MAT2A / Fold change vs veh, MAT2A / RFU, CCT5 / Fold change vs veh, CCT5 / RFU, WDR92 / Fold change vs veh, WDR92 / RFU, CUX1 / Fold change vs veh, CUX1 / RFU, TTC7A / Fold change vs veh, TTC7A / RFU, TMEM135 / Fold change vs veh, TMEM135 / RFU, DEPTOR / Fold change vs veh, DEPTOR / RFU, CPM / Fold change vs veh, CPM / RFU, DNAJB6 / Fold change vs veh, DNAJB6 / RFU, CACNA2D3 / Fold change vs veh, CACNA2D3 / RFU, DTX4 / Fold change vs veh, DTX4 / RFU, TFCP2 / Fold change vs veh, TFCP2 / RFU, GMCL1 /// GMCL1P1 / Fold change vs veh, GMCL1 /// GMCL1P1 / RFU, AEBP2 / Fold change vs veh, AEBP2 / RFU, SNHG1 /// SNORD22 /// SNORD25 /// SNORD26 /// SNORD27 /// SNORD28 /// SNORD29 /// SNORD31 / Fold change vs veh, SNHG1 /// SNORD22 /// SNORD25 /// SNORD26 /// SNORD27 /// SNORD28 /// SNORD29 /// SNORD31 / Fold change (Aza/veh), C12orf56 (ProbeSet 11735607_a_at) / Fold change (ACY-1035/veh), C12orf56 (ProbeSet 11735607_a_at) / Fold change (Aza/veh), FGFR1OP (ProbeSet 11751329_s_at) / Fold change (ACY-1035/veh), FGFR1OP (ProbeSet 11751329_s_at) / Fold change (Aza/veh), VPS36 (ProbeSet 11739960_a_at) / Fold change (ACY-1035/veh), VPS36 (ProbeSet 11739960_a_at) / RFU SYPL1 (11715823_x_at) / Fold change /veh SYPL1 (11715823_x_at) / RFU IGFBP7 (11715501_s_at) / Fold change /veh IGFBP7 (11715501_s_at) / RFU REEP3 (11722064_at) / Fold change /veh REEP3 (11722064_at) / RFU IGLL1 (11728026_x_at) / Fold change /veh IGLL1 (11728026_x_at): dose or concentration left out as unconfirmed
Details: ProbeSet 11719817_x_at; LIST B

Q: For `Nc1ccc(-c2cccs2)cc1NC(=O)c1ccc2c(c1)cc(C1CC1)n2CCN1CCOCC1` [ACY-1035], which “Fold change vs veh, BET1” value is on record?
A: 0.95
